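Five compound concentrations were applied to cells in 96-well plates for 48 hours; endpoints were derived by simple linear interpolation of the resulting dose-response curve. Definition used: TGI = concentration required for complete inhibition of growth.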
Columns and labels:
Test in all cases: growth of human tumour cells (NCI), 48 h
[1] = system: SNB-75 CNS
[2] = system: SK-MEL-2 melanoma
[3] = system: TK-10 renal
[4] = system: MOLT-4 leukemia
[5] = system: T-47D breast
[6] = system: HT29 colon
[7] = system: M14 melanoma
[8] = system: SW-620 colon
[9] = system: 786-0 renal
[10] = system: CAKI-1 renal
[11] = system: KM12 colon
[12] = system: EKVX NSCLC
[13] = system: SN12C renal
[14] = system: HL-60(TB) leukemia
[15] = system: MDA-MB-435
[16] = system: A498 renal
[17] = system: RXF 393 renal
[18] = system: SNB-19 CNS
[19] = system: NCI/ADR-RES ovarian
[20] = system: NCI-H522 lung
[21] = system: MALME-3M melanoma
[22] = system: K-562 leukemia
[23] = system: HOP-92 NSCLC
[24] = system: COLO 205 colon
[25] = system: SF-268 CNS
[26] = system: OVCAR-4 ovarian
[27] = system: UACC-257 melanoma
[28] = system: OVCAR-3 ovarian
[29] = system: RPMI-8226 leukemia
[30] = system: DU-145 prostate
[31] = system: HCC-2998 colon
[32] = system: LOX IMVI melanoma
[33] = system: OVCAR-8 ovarian
[34] = system: SK-MEL-5 melanoma
[35] = system: MCF7 breast
[36] = system: NCI-H226 lung
[37] = system: OVCAR-5 ovarian
[38] = system: CCRF-CEM leukemia
[39] = system: IGROV1 ovarian
[40] = system: PC-3 prostate
[41] = system: HS 578T breast
[42] = system: HCT-116 colon
[43] = system: ACHN renal
[44] = system: A549 NSCLC
[45] = system: SF-295 CNS
[46] = system: UO-31 renal
[47] = system: U251 CNS
[48] = system: SF-539 CNS
[49] = system: SK-MEL-28 melanoma
[50] = system: NCI-H23 lung
[51] = system: NCI-H460 lung
[52] = system: MDA-MB-231 breast
[53] = system: HCT-15 colon
[54] = system: MDA-N
[55] = system: SK-OV-3 ovarian
[56] = system: HOP-62 NSCLC

Measured: TGI

CC(=O)Nc1cc(C(=O)Nc2cc(C(=O)Nc3cc(C(=O)Nc4cc(C(=O)Nc5cc(C(=O)NCCC(=O)NCCCN(C)C)n(C)c5)n(C)c4)n(C)c3)n(C)c2)n(C)c1
73.9 µM: [38]
75 µM: [23]
> 100 µM: [1] | [2] | [3] | [4] | [6] | [7] | [8] | [9] | [11] | [12] | [13] | [14] | [15] | [16] | [17] | [18] | [19] | [21] | [22] | [24] | [25] | [26] | [27] | [28] | [29] | [30] | [31] | [32] | [33] | [34] | [35] | [36] | [37] | [39] | [40] | [41] | [42] | [43] | [44] | [45] | [46] | [47] | [48] | [49] | [50] | [51] | [52] | [53] | [54] | [55] | [56]
55.6 µM: [20]
44.6 µM: [10]
72.2 µM: [5]

Source: PubChem BioAssay (NCI)
